Measurements taken from patent US20150175599A1, “FAAH Inhibitors” (Ironwood Pharmaceuticals, Inc., priority 2010, published 2015).
Where two headings read alike, the source gives them in different places.

Biological target: T1, FAAH (Rattus norvegicus, UniProt P97612)
T1 construct: For the assay of FAAH activity in rat brain membrane (RBM) homogenates; tissue Charles River (animals); host or cells: rat whole brain, membrane fraction
T1 sequence (P97612 1-579): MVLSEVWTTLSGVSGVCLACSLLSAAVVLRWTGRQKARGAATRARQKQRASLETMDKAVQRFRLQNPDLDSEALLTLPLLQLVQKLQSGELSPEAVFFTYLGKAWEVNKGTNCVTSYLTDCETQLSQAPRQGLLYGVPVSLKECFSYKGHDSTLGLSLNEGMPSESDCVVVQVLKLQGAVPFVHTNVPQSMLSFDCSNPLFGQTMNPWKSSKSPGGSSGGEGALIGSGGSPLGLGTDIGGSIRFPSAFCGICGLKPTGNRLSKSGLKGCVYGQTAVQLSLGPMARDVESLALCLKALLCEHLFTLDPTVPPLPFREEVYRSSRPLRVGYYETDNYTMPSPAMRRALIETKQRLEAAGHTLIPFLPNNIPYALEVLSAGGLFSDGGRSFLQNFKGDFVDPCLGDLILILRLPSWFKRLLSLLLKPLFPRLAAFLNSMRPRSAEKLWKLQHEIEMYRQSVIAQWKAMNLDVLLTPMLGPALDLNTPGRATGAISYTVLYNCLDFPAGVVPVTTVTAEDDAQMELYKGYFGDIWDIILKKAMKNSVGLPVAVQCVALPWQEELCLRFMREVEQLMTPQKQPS
Experiment: FAAH inhibition, rat brain membrane homogenate assay
Assay type: biochemical
Method in brief: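 Membranes from female CD rat brain (Tris pH 7.4/EDTA/MgCl2 resuspension), 7 μg protein, incubated 10 min at 37 °C with [3H]anandamide plus […] unlabelled AEA, 1 mg/mL fatty acid-free BSA, Tris-HCl pH 6.5, 1 mM EDTA, 1% DMSO. [3H]ethanolamine separated by chloroform/methanol extraction or charcoal filtration, scintillation-counted; IC50 derived.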

[1] = rat brain homogenate, average activity, read-out: Rat Brain Extract FAAH IC50

Row | SMILES | IC50 [1] | IC50
1 | Cc1c(C(=O)C(=O)Nc2cccc(Cl)c2)c2cc(O)ccc2n1Cc1ccc(Cl)cc1 [Compound 71, 2-(1-(4-chlorobenzyl)-5-hydroxy-2-methyl-1H-indol-3-yl)-N-(3-chlorophenyl)-2-oxoacetamide] | 100 to 1000 nM | 
2 | COc1cc(NC(=O)C(=O)c2c(C)n(Cc3ccc(Cl)cc3)c3cc(F)c(OC)cc23)ccn1 [Compound 72, 2-(1-(4-chlorobenzyl)-6-fluoro-5-methoxy-2-methyl-1H-indol-3-yl)-N-(2-methoxypyridin-4-yl)-2-oxoacetamide] | < 100 nM | 
3 | COc1cc(NC(=O)C(=O)c2c(C)n(Cc3ccc(Cl)cc3)c3ccc(N)c(Cl)c23)ccn1 [Compound 73, 2-(5-amino-4-chloro-1-(4-chlorobenzyl)-2-methyl-1H-indol-3-yl)-N-(2-methoxypyridin-4-yl)-2-oxoacetamide] | 100 to 1000 nM | 
4 | COc1cc(NC(=O)C(=O)c2c(C)n(Cc3ccc(Cl)cc3)c3cc(C)c(OC)cc23)ccn1 [Compound 74, 2-(1-(4-chlorobenzyl)-5-methoxy-2,6-dimethyl-1H-indol-3-yl)-N-(2-methoxypyridin-4-yl)-2-oxoacetamide] | < 100 nM | 
5 | COc1cc(NC(=O)C(=O)c2c(C)n(Cc3ccc(Cl)cn3)c3ncc(C)cc23)ccn1 [Compound 75, (1-((5-chloropyridin-2-yl)methyl)-2,5-dimethyl-1H-pyrrolo[2,3-b]pyridin-3-yl)-N-(2-methoxypyridin-4-yl)-2-oxoacetamide] | < 100 nM | 
6 | COc1cc(NC(=O)C(=O)c2c(C)n(Cc3ccc(Cl)cc3)c3ncc(C)cc23)ccn1 [Compound 76, 2-(1-(4-chlorobenzyl)-2,5-dimethyl-1H-pyrrolo[2,3-b]pyridin-3-yl)-N-(2-methoxypyridin-4-yl)-2-oxoacetamide] | < 100 nM | 
7 | COc1ccc2c(c1)c(C(=O)C(=O)Nc1ccnc(OC)c1)c(C)n2Cc1ccccn1 [Compound 77, 2-(5-methoxy-2-methyl-1-(pyridin-2-ylmethyl)-1H-indol-3-yl)-N-(2-methoxypyridin-4-yl)-2-oxoacetamide] | < 100 nM | 
8 | COc1cc(NC(=O)C(=O)c2c(C)n(Cc3ncc(F)cc3F)c3ccc(C)cc23)ccn1 [Compound 88, 2-(1-((3,5-difluoropyridin-2-yl)methyl)-2,5-dimethyl-1H-indol-3-yl)-N-(2-methoxypyridin-4-yl)-2-oxoacetamide] |  | < 100 nM
9 | COc1cc(NC(=O)C(=O)c2c(C)n(Cc3ccc(Cl)cn3)c3cc(C)c(OC)cc23)ccn1 [Compound 95, 2-(1-((5-chloropyridin-2-yl)methyl)-5-methoxy-2,6-dimethyl-1H-indol-3-yl)-N-(2-methoxypyridin-4-yl)-2-oxoacetamide] | < 100 nM | 
10 | COc1ccc(Cn2c(C)c(C(=O)C(=O)Nc3ccnc(OC)c3)c3cc(OC)c(C)cc32)nc1 [Compound 96, 2-(5-methoxy-1-((5-methoxypyridin-2-yl)methyl)-2,6-dimethyl-1H-indol-3-yl)-N-(2-methoxypyridin-4-yl)-2-oxoacetamide] | < 100 nM | 
11 | COc1cc(NC(=O)C(=O)c2c(C)n(Cc3ncc(Cl)cc3F)c3cc(Cl)c(OC)cc23)ccn1 [Compound 97, 2-(6-chloro-1-((5-chloro-3-fluoropyridin-2-yl)methyl)-5-methoxy-2-methyl-1H-indol-3-yl)-N-(2-methoxypyridin-4-yl)-2-oxoacetamide] | < 100 nM | 
12 | COc1ccc(Cn2c(C)c(C(=O)C(=O)Nc3ccnc(OC)c3)c3cc(OC)c(Cl)cc32)nc1 [Compound 98, 2-(6-chloro-5-methoxy-1-((5-methoxypyridin-2-yl)methyl)-2-methyl-1H-indol-3-yl)-N-(2-methoxypyridin-4-yl)-2-oxoacetamide] | < 100 nM | 
13 | COc1cc(NC(=O)C(=O)c2c(C)n(Cc3ncc(Cl)cc3F)c3cc(F)c(OC)cc23)ccn1 [Compound 99, 2-(1-((5-chloro-3-fluoropyridin-2-yl)methyl)-6-fluoro-5-methoxy-2-methyl-1H-indol-3-yl)-N-(2-methoxypyridin-4-yl)-2-oxoacetamide] | < 100 nM | 
14 | COc1ccc2c(c1)c(C(=O)C(=O)Nc1ccnc(OC)c1)c(C)n2Cc1ncc(Cl)cc1OC [Compound 100, 2-(1-((5-chloro-3-methoxypyridin-2-yl)methyl)-5-methoxy-2-methyl-1H-indol-3-yl)-N-(2-methoxypyridin-4-yl)-2-oxoacetamide] | < 100 nM | 
15 | COc1cc(NC(=O)C(=O)c2c(C)n(Cc3ncc(F)cc3F)c3cc(F)c(OC)cc23)ccn1 [Compound 101, 2-(1-((3,5-difluoropyridin-2-yl)methyl)-6-fluoro-5-methoxy-2-methyl-1H-indol-3-yl)-N-(2-methoxypyridin-4-yl)-2-oxoacetamide] | < 100 nM | 
